Assays:
Type in all cases: in vivo
[1] = test system: barnyardgrass (Echinochloa crus-galli); assay: Test A pre-/postemergence greenhouse herbicide test, visual injury rating 0-100
Procedure, shortened: (§1)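 Visual injury versus untreated controls, scored about 10 days after treatment on a 0 to 100 scale (0 = no effect, 100 = complete control). Applications were preemergence directed soil spray plus postemergence spray at one- to two-leaf stage, 2 to 10 cm plants.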

corn (Zea mays) = assay: as above
Procedure, shortened: as §1

[2] = test system: giant foxtail (Setaria faberii); assay: as above
Procedure, shortened: as §1

[3] = test system: large (Lg) crabgrass (Digitaria sanguinalis); assay: as above
Procedure, shortened: as §1

[4] = test system: morningglory (Ipomoea spp.); assay: as above
Procedure, shortened: as §1

[5] = test system: pigweed (Amaranthus retroflexus); assay: as above
Procedure, shortened: as §1

[6] = test system: velvetleaf (Abutilon theophrasti); assay: as above
Procedure, shortened: as §1

[7] = test system: wheat (Triticum aestivum); assay: as above
Procedure, shortened: as §1

[8] = test system: johnsongrass (Sorghum halepense); assay: Test C pre-/postemergence greenhouse test, plant response rating 0-100
Procedure, shortened: (§2)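 Two application timings: preemergence onto seeded loam/sand soil and postemergence onto plants at the 1–4 leaf stage (2–18 cm) in peat/vermiculite medium. Formulation: non-phytotoxic solvent with surfactant. Read-out: visual control rating, 0–100, at 13–15 days after treatment.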

[9] = test system: lambsquarters (Chenopodium album); assay: as above
Procedure, shortened: as §2

[10] = test system: morningglory (Ipomoea coccinea); assay: as above
Procedure, shortened: as §2

[11] = test system: velvetleaf (Abutilon theophrasti); assay: as above
Procedure, shortened: as §2

[12] = Postemergence, 250 g ai/ha, scale 0 to 100
[13] = Postemergence, 500 g ai/ha, scale 0 to 100

SMILES: O=C(c1ccccc1)c1cn(S(=O)(=O)CC(F)(F)F)nc1-c1cc(Cl)cc(Cl)c1 [Compound 3]
- Plant response rating (0 to 100 scale), Barnyardgrass ([1]; Postemergence, 125 g ai/ha): 0
- Plant response rating (0 to 100 scale), Barnyardgrass ([1]; Postemergence, 500 g ai/ha): 0
- Barnyardgrass plant response rating (0 = no effect, 100 = complete control) ([1]; Preemergence, 125 g ai/ha): 0
- Plant response rating (0 to 100 scale), Barnyardgrass ([1]; Preemergence, 500 g ai/ha): 0
- Plant response rating (0 to 100 scale), Corn (corn (Zea mays); Postemergence, 125 g ai/ha): 0
- Plant response rating (0 to 100 scale), Corn (corn (Zea mays); Postemergence, 500 g ai/ha): 0
- Corn plant response rating (0 = no effect, 100 = complete control) (corn (Zea mays); Preemergence, 125 g ai/ha): 0
- Plant response rating (0 to 100 scale), Corn (corn (Zea mays); Preemergence, 500 g ai/ha): 0
- Plant response rating (0 to 100 scale), Foxtail, Giant ([2]; Postemergence, 125 g ai/ha): 0
- Plant response rating (0 to 100 scale), Foxtail, Giant ([2]; Postemergence, 500 g ai/ha): 0
- Foxtail, Giant plant response rating (0 = no effect, 100 = complete control) ([2]; Preemergence, 125 g ai/ha): 0
- Plant response rating (0 to 100 scale), Foxtail, Giant ([2]; Preemergence, 500 g ai/ha): 0
- Plant response rating (0 to 100 scale), Crabgrass, Large ([3]; Postemergence, 125 g ai/ha): 0
- Plant response rating (0 to 100 scale), Crabgrass, Large ([3]; Postemergence, 500 g ai/ha): 0
- Crabgrass, Large plant response rating (0 = no effect, 100 = complete control) ([3]; Preemergence, 125 g ai/ha): 0
- Plant response rating (0 to 100 scale), Crabgrass, Large ([3]; Preemergence, 500 g ai/ha): 0
- Plant response rating (0 to 100 scale), Morningglory ([4]; Postemergence, 125 g ai/ha): 0
- Plant response rating (0 to 100 scale), Morningglory ([4]; Postemergence, 500 g ai/ha): 0
- Morningglory plant response rating (0 = no effect, 100 = complete control) ([4]; Preemergence, 125 g ai/ha): 0
- Plant response rating (0 to 100 scale), Morningglory ([4]; Preemergence, 500 g ai/ha): 0
- Plant response rating (0 to 100 scale), Pigweed ([5]; Postemergence, 125 g ai/ha): 80
- Plant response rating (0 to 100 scale), Pigweed ([5]; Postemergence, 500 g ai/ha): 100
- Pigweed plant response rating (0 = no effect, 100 = complete control) ([5]; Preemergence, 125 g ai/ha): 60
- Plant response rating (0 to 100 scale), Pigweed ([5]; Preemergence, 500 g ai/ha): 80
- Plant response rating (0 to 100 scale), Velvetleaf ([6]; Postemergence, 125 g ai/ha): 90
- Plant response rating (0 to 100 scale), Velvetleaf ([6]; Postemergence, 500 g ai/ha): 100
- Velvetleaf plant response rating (0 = no effect, 100 = complete control) ([6]; Preemergence, 125 g ai/ha): 0
- Plant response rating (0 to 100 scale), Velvetleaf ([6]; Preemergence, 500 g ai/ha): 50
- Plant response rating (0 to 100 scale), Wheat ([7]; Postemergence, 125 g ai/ha): 0
- Plant response rating (0 to 100 scale), Wheat ([7]; Postemergence, 500 g ai/ha): 0
- Wheat plant response rating (0 = no effect, 100 = complete control) ([7]; Preemergence, 125 g ai/ha): 0
- Plant response rating (0 to 100 scale), Wheat ([7]; Preemergence, 500 g ai/ha): 0
- Plant response rating (0 to 100), Johnsongrass ([8]; Postemergence, 62 g ai/ha): 0
- Plant response rating (0 to 100), Johnsongrass ([8]; Postemergence, 125 g ai/ha): 0
- Plant response rating, Johnsongrass [8, 12]: 0
- Plant response rating, Johnsongrass [8, 13]: 0
- Plant response rating, Johnsongrass ([8]; Preemergence, 62 g ai/ha): 0
- Plant response rating, Johnsongrass ([8]; Preemergence, 125 g ai/ha): 0
- Plant response rating, Johnsongrass ([8]; Preemergence, 250 g ai/ha): 0
- Plant response rating, Johnsongrass ([8]; Preemergence, 500 g ai/ha): 0
- Plant response rating (0 to 100), Lambsquarters ([9]; Postemergence, 62 g ai/ha): 55
- Plant response rating, Lambsquarters [9, 12]: 80
- Plant response rating, Lambsquarters [9, 13]: 100
- Plant response rating, Lambsquarters ([9]; Preemergence, 62 g ai/ha): 100
- Plant response rating, Lambsquarters ([9]; Preemergence, 125 g ai/ha): 100
- Plant response rating, Lambsquarters ([9]; Preemergence, 250 g ai/ha): 100
- Plant response rating, Lambsquarters ([9]; Preemergence, 500 g ai/ha): 100
- Plant response rating (0 to 100), Morningglory ([10]; Postemergence, 62 g ai/ha): 0
- Plant response rating (0 to 100), Morningglory ([10]; Postemergence, 125 g ai/ha): 0
- Plant response rating, Morningglory [10, 12]: 0
- Plant response rating, Morningglory [10, 13]: 0
- Plant response rating, Morningglory ([10]; Preemergence, 62 g ai/ha): 0
- Plant response rating, Morningglory ([10]; Preemergence, 125 g ai/ha): 0
- Plant response rating, Morningglory ([10]; Preemergence, 250 g ai/ha): 10
- Plant response rating, Morningglory ([10]; Preemergence, 500 g ai/ha): 10
- Plant response rating (0 to 100), Velvetleaf ([11]; Postemergence, 62 g ai/ha): 70
- Plant response rating (0 to 100), Velvetleaf ([11]; Postemergence, 125 g ai/ha): 70
- Plant response rating, Velvetleaf [11, 12]: 75
- Plant response rating, Velvetleaf [11, 13]: 85
- Plant response rating, Velvetleaf ([11]; Preemergence, 62 g ai/ha): 50
- Plant response rating, Velvetleaf ([11]; Preemergence, 250 g ai/ha): 55
- Plant response rating, Velvetleaf ([11]; Preemergence, 500 g ai/ha): 100
- Plant response rating, Velvetleaf ([11]; Preemergence, 0 to 100 scale (0 no effect, 100 complete control), rate 500 g ai/ha per head r3, sub-head of this section not shown): 20

— US10167262B2, “Herbicidal substituted 3-arylpyrazoles” (FMC CORPORATION, priority 2014, dated 2019)
